From patent publication US6737383B1, “Herbicidal oxadiazolidines” (priority 1999, dated 2004)

Columns and labels:
galium = experiment: Test E galium; type: in vivo, Galium aparine; settings: Postemergence; for Plant response rating, Galium: 0 to 100 scale; for Galium plant response rating: Rate 250 g/ha, 0 to 100 scale where 0 is no effect and 100 is complete control
Protocol: […] A mixture of sandy loam soil and greenhouse potting mix in a 60:40 ratio was used for the postemergence test.
(§1) Plantings of these crops and weed species were adjusted to produce plants of appropriate size for the postemergence test. All plant species were grown using normal greenhouse practices. Crop and weed species include annual bluegrass (Poa annua), blackgrass (Alopecurus myosuroides), black nightshade (Solanum nigra), chickweed (Stellaria media), common poppy (Papaver rhoeas), deadnettle (Lamium amplexicaule), downy brome (Bromus tectorum), field violet (Viola arvensis), galium (Galium aparine), green foxtail (Setaria viridis), Italian ryegrass (Lolium multiflorum), jointed goatgrass (Aegilops cylindrica), kochia (Kochia scoparia), lambsquarters (Chenopodium album), littleseed canarygrass (Phalaris minor), rape (Brassica napus), redroot pigweed (Amaranthus retroflexus), Russian thistle (Salsola kali), scentless chamomile (Matricaria inodora), spring barley (Hordeum vulgare), sugar beet (Beta vulgaris), sunflower (Helianthus annuus), ivyleaf speedwell (Veronica hederaefolia), spring wheat (Triticum aestivum), winter wheat (Triticum aestivum), wild buckwheat (Polygonum convolvulus), wild mustard (Sinapis arvensis), wild oat (Avena fatua), windgrass (Apera spica-venti) and winter barley (Hordeum vulgare).
(§2) Treated plants and untreated controls were maintained in a greenhouse for approximately 21 to 28 days, after which all treated plants were compared to untreated controls and visually evaluated. […] A dash response (-) means no test result.

scentless chamomile = experiment: Test E scentless chamomile; type: in vivo, Matricaria inodora; settings: Postemergence; for Plant response rating, Scentless chamo: 0 to 100 scale; for Scentless chamo plant response rating: Rate 250 g/ha, 0 to 100 scale where 0 is no effect and 100 is complete control
How it was run: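 Postemergence: 60:40 sandy loam/greenhouse potting mix, 1- to 4-leaf stage. Formulation: solvent plus surfactant. Assessment: visual comparison with untreated controls at ~21–28 days.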

annual bluegrass = experiment: Test E annual bluegrass; type: in vivo, Poa annua; settings: Postemergence; for Plant response rating, Annual bluegras: 0 to 100 scale; for Annual bluegras plant response rating: Rate 250 g/ha, 0 to 100 scale where 0 is no effect and 100 is complete control
Protocol: (§3) Compounds evaluated in this test were formulated in a non-phytotoxic solvent mixture which included a surfactant and applied to plants that were in the 1- to 4-leaf stage (postemergence application). A mixture of sandy loam soil and greenhouse potting mix in a 60:40 ratio was used for the postemergence test.
as §1, §2

spring wheat = experiment: Test E spring wheat; type: in vivo, Triticum aestivum; settings: Preemergence; for Spring Wheat plant response rating (0 to 100 scale): Rate 250 g/ha
windgrass [1] = experiment: Test E windgrass; type: in vivo, Apera spica-venti; settings: Preemergence; for Plant response rating, Windgrass: Rate 125 g/ha, 0 to 100 scale (0 no effect, 100 complete control)
windgrass [2] = experiment: Test E windgrass; type: in vivo, Apera spica-venti; settings: Postemergence; for Plant response rating, Windgrass: 0 to 100 scale
Protocol: as §3, §1, §2

lambsquarters [3] = experiment: Test E lambsquarters; type: in vivo, Chenopodium album; settings: Postemergence; for Plant response rating Lambsquarters: 0 to 100 scale; for Lambsquarters plant response rating: Rate 250 g/ha, 0 to 100 scale where 0 is no effect and 100 is complete control
Protocol: as §3, §1, §2

common ragweed = experiment: Test C postemergence common ragweed; type: in vivo, Ambrosia elatior; settings: 0 to 100 scale, 0 no effect, 100 complete control
How it was run: (§4)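 Visual injury scored 0-100 (100 = complete control) versus untreated plants roughly 14 to 21 days after treatment. Plants were grown to suitable size in 60:40 sandy loam and potting mix, then treated postemergence with surfactant-containing solvent formulations.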

lambsquarters [4] = experiment: Test E lambsquarters; type: in vivo, Chenopodium album; settings: Preemergence; for Lambsquarters plant response rating (0 to 100 scale): Rate 250 g/ha
downy brome = experiment: Test E downy brome; type: in vivo, Bromus tectorum; settings: Preemergence; for Downy brome plant response rating (0 to 100 scale): Rate 250 g/ha
eastern black nightshade = experiment: Test C postemergence eastern black nightshade; type: in vivo, Solanum ptycanthum; settings: 0 to 100 scale, 0 no effect, 100 complete control
How it was run: as §4

sugar beet = experiment: Test E sugar beet; type: in vivo, Beta vulgaris; settings: Preemergence; for Sugar beet plant response rating (0 to 100 scale): Rate 250 g/ha
Johnson grass = experiment: Test D Johnson grass; type: in vivo, Sorghum halepense; settings: Postemergence, 0 to 100 scale
goosegrass = experiment: Test D goosegrass; type: in vivo, Eleusine indica; settings: Postemergence, 0 to 100 scale
Green foxtail [5] = experiment: Test D green foxtail; type: in vivo; settings: Postemergence, 0 to 100 scale, 0 no injury, 100 complete control
Green foxtail [6] = experiment: Test D green foxtail; type: in vivo; settings: Rate 250 g/ha; Postemergence; 0 to 100 scale
[7] = Rate 125 g/ha, 0 to 100 scale (0 no effect, 100 complete control)
[8] = Rate 125 g/ha, 0 is no effect, 100 is complete control
[9] = Rate 500 g/ha, 0 is no effect, 100 is complete control
[10] = Rate 16 g/ha, 0 no injury, 100 complete control
[11] = Rate 32 g/ha, 0 no injury, 100 complete control
[12] = Rate 64 g/ha, 0 no injury, 100 complete control
[13] = Rate 125 g/ha, 0 no injury, 100 complete control
[14] = Rate 500 g/ha, 0 to 100 scale where 0 is no effect and 100 is complete control

## CC(C)N(C(=O)n1oc(=O)n(C)c1=O)c1ccc(F)cc1 [Compound 138]
galium; Rate 125 g/ha
  Plant response rating, Galium: 20
galium
  Galium plant response rating: 50
Scentless chamomile; Rate 125 g/ha
  Plant response rating, Scentless chamo: 20
Scentless chamomile
  Scentless chamo plant response rating: 0
Annual bluegrass; Rate 125 g/ha
  Plant response rating, Annual bluegras: 0
Annual bluegrass
  Annual bluegras plant response rating: 10
Spring wheat; [7]
  Plant response rating, Spring Wheat: 55
Spring wheat
  Spring Wheat plant response rating (0 to 100 scale): 100
Windgrass [1]
  Plant response rating, Windgrass: 100
Windgrass [1]; Rate 250 g/ha
  Windgrass plant response rating (0 to 100 scale): 100
Windgrass [2]; Rate 250 g/ha, 0 to 100 scale where 0 is no effect and 100 is complete control
  Windgrass plant response rating: 95
Lambsquarters [3]; Rate 125 g/ha
  Plant response rating Lambsquarters: 10
Lambsquarters [3]
  Lambsquarters plant response rating: 30
Common ragweed; Rate 140 g/ha
  Plant response rating Common ragweed: 0
Common ragweed; Rate 280 g/ha
  Plant response rating Common ragweed: 0
Common ragweed; Rate 560 g/ha
  Plant response rating Common ragweed: 0
Lambsquarters [4]; [7]
  Plant response rating Lambsquarters: 100
Lambsquarters [4]
  Lambsquarters plant response rating (0 to 100 scale): 100
Downy brome; [7]
  Plant response rating, Downy brome: 90
Downy brome
  Downy brome plant response rating (0 to 100 scale): 90
Eastern black nightshade; Rate 140 g/ha
  Plant response rating E. blacknightsh: 0
Eastern black nightshade; Rate 280 g/ha
  Plant response rating E. blacknightsh: 10
Eastern black nightshade; Rate 560 g/ha
  Plant response rating E. blacknightsh: 70
Eastern black nightshade; Rate 1120 g/ha
  Plant response rating E. blacknightsh: 70
Sugar beet; [7]
  Plant response rating, Sugar beet: 0
Sugar beet
  Sugar beet plant response rating (0 to 100 scale): 50

## CC(C)N(C(=O)n1oc(=O)n(C2CC2)c1=O)c1ccc(F)cc1 [Compound 242]
galium; Rate 62 g/ha
  Plant response rating, Galium: 0
galium; [8]
  Plant response rating, Galium: 20
galium
  Galium plant response rating: 30
galium; [9]
  Plant response rating, Galium: 40
Scentless chamomile; Rate 62 g/ha
  Plant response rating, Scentless chamo: 55
Scentless chamomile; [8]
  Plant response rating, Scentless chamo: 40
Scentless chamomile
  Scentless chamo plant response rating: 0
Scentless chamomile; [9]
  Plant response rating, Scentless chamo: 20
Johnson grass; [10]
  Plant response rating, Johnsongrass: 0
Johnson grass; [11]
  Plant response rating, Johnsongrass: 0
Johnson grass; [12]
  Plant response rating, Johnsongrass: 40
Johnson grass; [13]
  Plant response rating, Johnsongrass: 30
Johnson grass; Rate 250 g/ha
  Plant response rating, Johnsongrass: 90
goosegrass; [10]
  Plant response rating, Goosegrass: 90
goosegrass; [11]
  Plant response rating, Goosegrass: 100
goosegrass; [12]
  Plant response rating, Goosegrass: 100
goosegrass; [13]
  Plant response rating, Goosegrass: 100
goosegrass; Rate 250 g/ha
  Plant response rating, Goosegrass: 100
Annual bluegrass; Rate 62 g/ha
  Plant response rating, Annual bluegras: 95
Annual bluegrass; [8]
  Plant response rating, Annual bluegras: 20
Annual bluegrass
  Annual bluegras plant response rating: 10
Annual bluegrass; [9]
  Plant response rating, Annual bluegras: 80
Spring wheat; [7]
  Plant response rating, Spring Wheat: 55
Spring wheat
  Spring Wheat plant response rating (0 to 100 scale): 60
Spring wheat; [14]
  Plant response rating, Spring Wheat: 100
Windgrass [1]
  Plant response rating, Windgrass: 100
Windgrass [2]; Rate 62 g/ha
  Plant response rating, Windgrass: 90
Windgrass [2]; [8]
  Plant response rating, Windgrass: 95
Windgrass [2]; [9]
  Plant response rating, Windgrass: 95
Lambsquarters [3]; Rate 62 g/ha
  Plant response rating Lambsquarters: 10
Lambsquarters [3]; [8]
  Plant response rating Lambsquarters: 0
Lambsquarters [3]
  Lambsquarters plant response rating: 0
Lambsquarters [3]; [9]
  Plant response rating Lambsquarters: 0
Green foxtail [5]; Rate 16 g/ha
  Plant response rating, Green foxtail: 30
Green foxtail [5]; Rate 32 g/ha
  Plant response rating, Green foxtail: 100
Common ragweed; Rate 140 g/ha
  Plant response rating Common ragweed: 0
Common ragweed; Rate 280 g/ha
  Plant response rating Common ragweed: 10
Common ragweed; Rate 560 g/ha
  Plant response rating Common ragweed: 80
Common ragweed; Rate 1120 g/ha
  Plant response rating Common ragweed: 80
Lambsquarters [4]; [7]
  Plant response rating Lambsquarters: 100
Lambsquarters [4]
  Lambsquarters plant response rating (0 to 100 scale): 100
Lambsquarters [4]; [14]
  Plant response rating Lambsquarters: 100
Downy brome; [7]
  Plant response rating, Downy brome: 70
Downy brome
  Downy brome plant response rating (0 to 100 scale): 100
Downy brome; [14]
  Plant response rating, Downy brome: 100
Eastern black nightshade; Rate 140 g/ha
  Plant response rating E. blacknightsh: 0
Eastern black nightshade; Rate 280 g/ha
  Plant response rating E. blacknightsh: 40
Eastern black nightshade; Rate 560 g/ha
  Plant response rating E. blacknightsh: 60
Eastern black nightshade; Rate 1120 g/ha
  Plant response rating E. blacknightsh: 90
Green foxtail [6]
  Plant response rating, Green foxtail: 100
Sugar beet; [7]
  Plant response rating, Sugar beet: 30
Sugar beet
  Sugar beet plant response rating (0 to 100 scale): 50
Sugar beet; [14]
  Plant response rating, Sugar beet: 65

## CC(C)N(C(=O)n1oc(=O)n(C2CCCCCC2)c1=O)c1ccc(F)cc1F [Compound 342]
Johnson grass; [10]
  Plant response rating, Johnsongrass: 0
Johnson grass; [11]
  Plant response rating, Johnsongrass: 0
Johnson grass; [12]
  Plant response rating, Johnsongrass: 0
Johnson grass; [13]
  Plant response rating, Johnsongrass: 0
Johnson grass; Rate 250 g/ha
  Plant response rating, Johnsongrass: 0
goosegrass; [10]
  Plant response rating, Goosegrass: 20
goosegrass; [11]
  Plant response rating, Goosegrass: 30
goosegrass; [12]
  Plant response rating, Goosegrass: 90
goosegrass; [13]
  Plant response rating, Goosegrass: 100
goosegrass; Rate 250 g/ha
  Plant response rating, Goosegrass: 100
Green foxtail [5]; Rate 16 g/ha
  Plant response rating, Green foxtail: 0
Green foxtail [5]; Rate 32 g/ha
  Plant response rating, Green foxtail: 0
Green foxtail [6]
  Plant response rating, Green foxtail: 100
